Source: PMC6843921 (Biomolecules, 2019)
“And” between values parts separate entries of the source, which are not always exact repeats. Identical values can stand only once. Like-named read-outs stand apart in the source and are kept apart here.

What was measured:
mtDUT [1] = target: T1, mtDUT (Mycobacterium tuberculosis, UniProt P9WNS5); settings: cited from earlier work
hDUT [2] = target: T2, hDUT (Homo sapiens, UniProt P33316); assay: Thermofluor stability assay; assay type: binding; design: His tag (N); made in house; settings: for Tm (5 mM Mg^2+): 5 mM MgCl2
T2 sequence (P33316 1-164 isoform P33316-2): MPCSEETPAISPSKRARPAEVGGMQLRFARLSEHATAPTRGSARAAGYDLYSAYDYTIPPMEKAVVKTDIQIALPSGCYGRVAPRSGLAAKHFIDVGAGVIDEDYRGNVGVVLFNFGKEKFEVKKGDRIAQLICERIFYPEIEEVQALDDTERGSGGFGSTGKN

hDUT [3] = target: T2, hDUT; design: His tag (N); made in house; method as in PMID 18519027, PMID 17848562; settings: dUTP hydrolysis; 5 mM Mg^2+, no EDTA; reported previously ref 20, 51; cited from earlier work
hDUT [4] = target: T2, hDUT; assay: Isothermal titration calorimetry (ITC); assay type: binding; design: His tag (N); made in house
mtDUT [5] = target: T1, mtDUT; assay: biochemical; assay type: binding; design: His tag (N); made in house
hDUT [6] = target: T2, hDUT; design: His tag (N); made in house; method as in PMID 20601405, PMID 17880943, PMID 17848562; settings: same titration in the presence of Mg^2+; cited from earlier work
[7] = design: method as in PMID 9299023; settings: smallest reported value for the ATP:Mg^2+ complex; read-out: dissociation constant; cited from earlier work
hDUT [8] = target: T2, hDUT; settings: no Mg^2+; for kcat: dUTP hydrolysis, 20 °C, pH 7.5
Description: (§1) Continuous pH indicator-based assays were performed to measure enzyme activity at 20 °C as described in [26]. Briefly, 1 µM protein was used in a buffer pH 7.5 containing 1 mM HEPES, 100 mM KCl and 40 µM phenol red. A Specord 200 (Analytic, Jena, Germany) spectrophotometer and 10-mm-path length cuvettes were used, and absorbance was recorded at 559 nm. Initial velocity was determined from the first 10% of the progress curve. […] Data fitting was accomplished using OriginPro 7.5 (OriginLab Corp, Northampton, MA, USA).

mtDUT [9] = target: T1, mtDUT
Description: as §1

[10] = EDTA titrated with Mg^2+, pH 7.5, 293 K
EcMutT [11] = target: T3, EcMutT (Escherichia coli, UniProt P08337); settings: no Mg^2+, pH 7.5, 293 K
Taq polymerase [12] = target: T4, Taq polymerase (Thermus aquaticus, UniProt P19821); settings: no Mg^2+, pH 7.5, 293 K
EcMutT [13] = target: T3, EcMutT; assay: biochemical
Taq polymerase [14] = target: T4, Taq polymerase; assay: biochemical
[15] = hDUT complexed with ligand (100 µM dUPNPP or 1 mM dUMP)
[16] = apparent, no Mg^2+, pH 7.5, 293 K, average and SD
[17] = fit of the titration shown in Figure S1A, no Mg^2+
[18] = no Mg^2+, pH 7.5, 293 K, average and SD
[19] = fit of the titration shown in Figure S1B, no Mg^2+

T1 sequence (P9WNS5 whole entry): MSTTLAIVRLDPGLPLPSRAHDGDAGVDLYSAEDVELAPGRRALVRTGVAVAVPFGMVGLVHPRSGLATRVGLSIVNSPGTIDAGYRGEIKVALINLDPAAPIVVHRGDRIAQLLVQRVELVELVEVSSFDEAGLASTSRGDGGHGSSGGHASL
T3 sequence (P08337 whole entry): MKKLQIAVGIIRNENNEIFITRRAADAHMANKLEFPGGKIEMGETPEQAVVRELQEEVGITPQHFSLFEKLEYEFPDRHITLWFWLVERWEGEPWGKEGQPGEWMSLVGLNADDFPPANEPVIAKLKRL
T4 sequence (P19821 whole entry): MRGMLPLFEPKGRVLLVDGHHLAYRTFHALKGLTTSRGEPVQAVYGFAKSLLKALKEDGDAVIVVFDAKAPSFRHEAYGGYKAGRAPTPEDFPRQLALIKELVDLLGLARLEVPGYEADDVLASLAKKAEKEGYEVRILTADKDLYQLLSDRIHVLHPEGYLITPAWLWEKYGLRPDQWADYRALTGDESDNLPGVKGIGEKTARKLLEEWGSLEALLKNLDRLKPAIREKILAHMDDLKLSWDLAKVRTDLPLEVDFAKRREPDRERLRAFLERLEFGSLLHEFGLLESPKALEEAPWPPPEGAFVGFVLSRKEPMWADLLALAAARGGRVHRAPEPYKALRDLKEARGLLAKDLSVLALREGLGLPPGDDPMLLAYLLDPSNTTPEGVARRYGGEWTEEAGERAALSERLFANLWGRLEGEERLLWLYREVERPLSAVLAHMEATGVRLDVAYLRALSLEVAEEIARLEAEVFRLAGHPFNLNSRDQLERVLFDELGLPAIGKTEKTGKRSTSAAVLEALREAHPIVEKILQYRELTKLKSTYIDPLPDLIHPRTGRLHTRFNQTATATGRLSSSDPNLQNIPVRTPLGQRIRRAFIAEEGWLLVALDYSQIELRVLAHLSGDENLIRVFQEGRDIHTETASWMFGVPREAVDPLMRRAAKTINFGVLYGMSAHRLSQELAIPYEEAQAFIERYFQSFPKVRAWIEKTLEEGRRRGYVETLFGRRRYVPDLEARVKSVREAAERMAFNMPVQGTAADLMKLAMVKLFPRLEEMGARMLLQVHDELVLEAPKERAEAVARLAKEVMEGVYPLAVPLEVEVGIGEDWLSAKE

For `[Mg+2]` [Mg^2+], which kcat (mtDUT [1]) is on record?
Its kcat is 2.39 ± 0.16 s⁻¹.

And the Km (mtDUT [1]; dUTP hydrolysis, 5 mM Mg^2+, no EDTA, reported previously ref 20, 51)?
Its Km is 1.72 ± 0.51 µM.

And the “Tm (5 mM Mg^2+)” value (hDUT [2]; apo hDUT)?
Its value is 59.5 ± 0.3 °C.

What about the “increase of melting temperature in the presence of Mg^2+” value (hDUT [2]; apo hDUT, 5 mM Mg^2+ vs no Mg^2+) of the same compound?
Its value is 0.9 °C.

What about the Km (hDUT [3]) of the same compound?
Its Km is 2.26 ± 0.33 µM.

And the kcat (hDUT [3])?
The kcat was 5.27 ± 0.24 s⁻¹.

With `O=c1ccn([C@H]2C[C@H](O)[C@@H](COP(=O)(O)NP(=O)(O)OP(=O)(O)O)O2)c(=O)[nH]1` [dUPNPP] as the compound, how does the “Tm (100 µM EDTA)” value (hDUT [2]; [15]) read?
The value was 58.3 ± 0.1 °C.

And the “Tm (5 mM Mg^2+)” value (hDUT [2]; [15])?
The value was 63.9 ± 0.3 °C.

And the “Tm (No Mg^2+, no EDTA)” value (hDUT [2]; [15])?
Its value is 59.1 ± 0.2 °C.

And the Kd (hDUT [4]; [16])?
The Kd was 44 µM and 43.9 µM.

And the Kd (hDUT [4]; [17])?
Its Kd is 54 µM.

And the “n (stoichiometry)” value (hDUT [4]; [17])?
Its value is 0.41.

And the ΔG (hDUT [4]; [17])?
Its ΔG is “–5.7 kcal/mol”.

And the ΔH (hDUT [4]; [17])?
The ΔH was “–19.9 kcal/mol”.

And the “–TΔS” value (hDUT [4]; [17])?
The value was 59 kJ/mol.

What about the ΔG (hDUT [4]; [18]) of the same compound?
The ΔG was -24.7 ± 0.84 kJ/mol.

What about the ΔH (hDUT [4]; [18]) of the same compound?
Its ΔH is -72.8 ± 15.1 kJ/mol.

What about the “−TΔS” value (hDUT [4]; [18]) of the same compound?
Its value is 48.1 ± 15.5 kJ/mol.

What about the “n (stoichiometry)” value (mtDUT [5]) of the same compound?
The value was 1.

What about the ΔG (mtDUT [5]; [19]) of the same compound?
Its ΔG is “–6.2 kcal/mol”.

What about the ΔH (mtDUT [5]; [19]) of the same compound?
Its ΔH is “–4.4 kcal/mol”.

And the “–TΔS” value (mtDUT [5]; [19])?
The value was “–1.8 kcal/mol”.

And the ΔH (mtDUT [5]; [18])?
The ΔH was -18.8 ± 0.84 kJ/mol.

And the “−TΔS” value (mtDUT [5]; [18])?
The value was -8.79 ± 1.7 kJ/mol.

And the Kd (hDUT [6])?
Its Kd is 2 to 7 µM.

With `Nc1ncnc2c1ncn2[C@@H]1O[C@H](COP(=O)(O)OP(=O)(O)OP(=O)(O)O)[C@@H](O)[C@H]1O` [ATP] as the compound, how does the Kd [7] read?
Its Kd is 46.3 µM.

For `O=c1ccn([C@H]2C[C@H](O)[C@@H](COP(=O)(O)O)O2)c(=O)[nH]1` [dUMP], which “Tm (100 µM EDTA)” value (hDUT [2]; [15]) is on record?
The value was 58.7 ± 0.1 °C.

What about the “Tm (5 mM Mg^2+)” value (hDUT [2]; [15]) of the same compound?
Its value is 62.3 ± 0.1 °C.

What about the “Tm (No Mg^2+, no EDTA)” value (hDUT [2]; [15]) of the same compound?
The value was 59.7 ± 0.1 °C.

With `O=C(O)CN(CCN(CC(=O)O)CC(=O)O)CC(=O)O` [EDTA, ethylene diamine tetraacetic acid] as the compound, how does the KM increase (hDUT [8]; 30 µM EDTA) read?
Its KM increase is 2.7 fold.

What about the “kcat decreased to” value (hDUT [8]; 100 µM EDTA) of the same compound?
Its value is 6%.

And the kcat (hDUT [8]; 30 µM EDTA)?
Its kcat is 3.30 ± 0.26 s⁻¹.

What about the kcat (hDUT [8]; 100 µM EDTA) of the same compound?
The kcat was 0.24 ± 0.03 s⁻¹.

And the KM increase (mtDUT [9])?
The KM increase was 3.7 fold.

What about the ΔG [10] of the same compound?
The ΔG was -33.5 ± 3.8 kJ/mol.

And the ΔH [10]?
The ΔH was 18.4 ± 1.3 kJ/mol.

What about the “−TΔS” value [10] of the same compound?
Its value is -52.3 ± 2.5 kJ/mol.

And the Kd ([10]; apparent)?
Its Kd is 2.53 ± 0.18 µM.

And the ΔG (EcMutT [11])?
The ΔG was -35.1 ± 0.42 kJ/mol.

And the ΔH (EcMutT [11])?
Its ΔH is -40.6 ± 0.084 kJ/mol.

And the “−TΔS” value (EcMutT [11])?
Its value is 5.44 ± 0.42 kJ/mol.

What about the ΔG (Taq polymerase [12]) of the same compound?
Its ΔG is -41 ± 0 kJ/mol.

And the ΔH (Taq polymerase [12])?
Its ΔH is -26.4 ± 2.9 kJ/mol.

And the “−TΔS” value (Taq polymerase [12])?
Its value is -14.6 ± 2.9 kJ/mol.

What about the Kd (EcMutT [13]) of the same compound?
Its Kd is 0.55 ± 0.066 µM.

And the Kd (Taq polymerase [14])?
The Kd was 0.047 µM.

And the “Tm (100 µM EDTA)” value (hDUT [2]; apo hDUT)?
Its value is 58.5 ± 0.1 °C.

What about the Kd (hDUT [4]; absence of Mg^2+) of the same compound?
Its Kd is 0.199 µM.

And the Kd (hDUT [4]; [16])?
Its Kd is 0.2 ± 0.009 µM.

And the ΔG (hDUT [4]; [18])?
Its ΔG is -37.7 ± 0 kJ/mol.

What about the ΔH (hDUT [4]; [18]) of the same compound?
Its ΔH is -46.9 ± 1.7 kJ/mol.

What about the “−TΔS” value (hDUT [4]; [18]) of the same compound?
Its value is 9.2 ± 1.7 kJ/mol.

What about the Kd (mtDUT [5]) of the same compound?
The Kd was 0.078 µM.

And the ΔG (mtDUT [5]; [18])?
The ΔG was -40.2 ± 0.84 kJ/mol.

What about the ΔH (mtDUT [5]; [18]) of the same compound?
The ΔH was -17.6 ± 4.18 kJ/mol.

And the “−TΔS” value (mtDUT [5]; [18])?
Its value is -22.2 ± 5.02 kJ/mol.
